These results are taken from ChEMBL document CHEMBL3137667, “[Drug-induced liver injury; fourteenth updated edition of the bibliographic database of liver injuries and related drugs]” (Gastroenterol Clin Biol, 2004).

For data set [1] the following is noted: human, serum.
The conditions of data set [2]: human.
For data set [3] the following is noted: human. The source holds these as a separate data set.
The conditions of data set [4]: human, serum, 4383 h.
For data set [5] the following is noted: human. The source holds these as a separate data set.
For data set [6] the following is noted: human. This is another data set of the same source.
The conditions of data set [7]: human. The source holds these as a separate data set.
A short description of data set [8]: Highest frequency of acute liver toxicity observed during clinical trials, expressed as a percentage. [column '% AIGUE' in source]. The note with it: human.
For data set [9] the following is noted: human. This is another data set of the same source.
Data set [10] can be described thus: Highest frequency of moderate liver toxicity observed during clinical trials, expressed as a percentage. [column '% BIOL' in source]. Conditions: human.
The conditions of data set [11]: human, serum. This is another data set of the same source.
The conditions of data set [12]: human. This is another data set of the same source.
The nature of data set [13]: Comments (NB not yet translated). [column 'COMMENTAIRES' in source]. The note with it: human.
For data set [14] the following is noted: human. This is another data set of the same source.
The conditions of data set [15]: human. The source holds these as a separate data set.
The conditions of data set [16]: human. This is another data set of the same source.
A short description of data set [17]: Times to onset, minimal and maximal, observed in the indexed observations. [column 'DELAI' in source]. Conditions: human.
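Throughout, for Hepatotoxicity (association with vascular disease): count of indexed literature references reporting vascular liver injury in humans, e.g. peliosis hepatitis, hepatic veno-occlusive disease or Budd-Chiari syndrome.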
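Throughout, for Hepatotoxicity (benign tumour): value is a count of indexed literature references citing a benign tumour confirmed by histopathology.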
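Throughout, for Hepatotoxicity (choleostasis): human cholestatic liver injury, shown by histopathology or by peak ALT or AST elevation over alkaline phosphatase ratio below 2, value counts indexed literature reports.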
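Throughout, for Hepatotoxicity (chronic liver disease): chronic liver injury confirmed by histopathology or persistently raised serum aminotransferase activity beyond 6 months, value given as the count of indexed literature references.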
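Throughout, for Hepatotoxicity (cirrhosis): value is a count of indexed literature references reporting cirrhosis confirmed by histopathology.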
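Throughout, for Hepatotoxicity (cytolytic): human cytolytic liver injury, shown by histopathology or by a ratio above 5 of peak ALT or AST elevation to alkaline phosphatase elevation, value counts indexed references.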
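Throughout, for Hepatotoxicity (granulomatous hepatitis): value is a count of indexed literature references reporting granulomatous liver disease confirmed by histopathology.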
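Throughout, for Hepatotoxicity (malignant tumour): malignant tumour confirmed by histopathology, value gives the count of indexed literature references reporting it.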
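Throughout, for Hepatotoxicity (severe hepatitis): human clinical data: severe hepatitis, meaning potentially life-threatening liver failure or clinically observed cases, the value counts how many indexed literature references report it.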
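Throughout, for Hepatotoxicity (steatosis): steatosis confirmed by histopathology, value is the count of indexed references.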

For the compound BLEOMYCIN, the figures for the “Hepatotoxicity (moderate)” value in [1] and in data set [10] were 1 and 0%, respectively. Moreover, the “Hepatotoxicity (cirrhosis)” value in data set [2] was 0. In addition, the “Hepatotoxicity (granulomatous hepatitis)” value in [3] is 0. Further, the “Hepatotoxicity (chronic liver disease)” value in data set [4] was 0. Further, the “Hepatotoxicity (cytolytic)” value in data set [5] was found to be 0. The “Hepatotoxicity (benign tumour)” value in data set [6] is reported as 0. The “Hepatotoxicity (animal toxicity known)” value in data set [7] is listed as “yes”. Moreover, the “Hepatotoxicity (acute)” value in data set [8] was found to be 0%; in data set [11], 0. In addition, the “Hepatotoxicity (association with vascular disease)” value in data set [9] came out at 0. Besides, in data set [12], the “Hepatotoxicity (choleostasis)” value is reported as 0. Also, the “Hepatotoxicity (comment)” value in data set [13] is recorded as “HYPERBILIRUBINEMIE”. The “Hepatotoxicity (malignant tumour)” value in data set [14] is 0. Moreover, in data set [15], the “Hepatotoxicity (severe hepatitis)” value turned out to be 0. Also, in [16], the “Hepatotoxicity (steatosis)” value was 0.
For the compound `CC[C@]1(O)C[C@@H]2CN(CCc3c([nH]c4ccccc34)[C@@](C(=O)OC)(c3cc4c(cc3OC)N(C)[C@H]3[C@@](O)(C(=O)OC)[C@H](OC(C)=O)[C@]5(CC)C=CCN6CC[C@]43[C@@H]65)C2)C1` [VINBLASTINE], the “Hepatotoxicity (moderate)” value is 5 in data set [1] and 22.6% in data set [10]. In addition, the “Hepatotoxicity (cirrhosis)” value in [2] was 0. Moreover, the “Hepatotoxicity (granulomatous hepatitis)” value in [3] turned out to be 0. The “Hepatotoxicity (time to onset)” value in [17] is listed as 2 cures. Further, the “Hepatotoxicity (chronic liver disease)” value in [4] was 0. Moreover, the “Hepatotoxicity (cytolytic)” value in [5] came out at 0. For the same compound, in data set [6], the “Hepatotoxicity (benign tumour)” value is 0. Further, in data set [7], the “Hepatotoxicity (animal toxicity known)” value is listed as “yes”. The “Hepatotoxicity (acute)” value in [8] was 0%; in data set [11], 1. Further, the “Hepatotoxicity (association with vascular disease)” value in [9] is 1. The “Hepatotoxicity (choleostasis)” value in data set [12] is reported as 1. Moreover, in [13], the “Hepatotoxicity (comment)” value is on record as “I/DOXORUBICINE”. The “Hepatotoxicity (malignant tumour)” value in data set [14] came to 0. Besides, the “Hepatotoxicity (severe hepatitis)” value in data set [15] is 0. Besides, the “Hepatotoxicity (steatosis)” value in data set [16] amounted to 0.
Regarding `C=CC[C@@H]1/C=C(\C)C[C@H](C)C[C@H](OC)[C@H]2O[C@@](O)(C(=O)C(=O)N3CCCC[C@H]3C(=O)O[C@H](/C(C)=C/[C@@H]3CC[C@@H](O)[C@H](OC)C3)[C@H](C)[C@@H](O)CC1=O)[C@H](C)C[C@@H]2OC` [TACROLIMUS ANHYDROUS], the “Hepatotoxicity (moderate)” value in data set [1] is 1; in data set [10] it was 37%. Moreover, in data set [2], the “Hepatotoxicity (cirrhosis)” value was determined as 0. For the same compound, the “Hepatotoxicity (granulomatous hepatitis)” value in data set [3] was 0. Besides, the “Hepatotoxicity (time to onset)” value in [17] is recorded as 1 month - 3 months. In addition, the “Hepatotoxicity (chronic liver disease)” value in data set [4] is 0. In data set [5], the “Hepatotoxicity (cytolytic)” value turned out to be 0. Further, in data set [6], the “Hepatotoxicity (benign tumour)” value is recorded as 0. Further, in data set [7], the “Hepatotoxicity (animal toxicity known)” value was “yes”. The “Hepatotoxicity (acute)” value was 0% in [8] and 0 in [11]. The “Hepatotoxicity (association with vascular disease)” value in [9] is on record as 2. The “Hepatotoxicity (choleostasis)” value in data set [12] is reported as 0. The “Hepatotoxicity (comment)” value in data set [13] is reported as “MVO PELIOSE”. Also, in data set [14], the “Hepatotoxicity (malignant tumour)” value was determined as 0. Also, in [15], the “Hepatotoxicity (severe hepatitis)” value came to 0. The “Hepatotoxicity (steatosis)” value in data set [16] came to 0.
In the case of `CCCCNC(=O)NS(=O)(=O)c1ccc(N)cc1` [CARBUTAMIDE], the “Hepatotoxicity (moderate)” value in data set [1] came out at 1; in data set [10], 30%. Further, the “Hepatotoxicity (cirrhosis)” value in data set [2] stood at 0. In data set [3], the “Hepatotoxicity (granulomatous hepatitis)” value is listed as 0. The “Hepatotoxicity (time to onset)” value in [17] is given as 2 weeks - 4 weeks. Moreover, in data set [4], the “Hepatotoxicity (chronic liver disease)” value is 0. For the same compound, in data set [5], the “Hepatotoxicity (cytolytic)” value is given as 1. For the same compound, the “Hepatotoxicity (benign tumour)” value in data set [6] is recorded as 0. Further, the “Hepatotoxicity (animal toxicity known)” value in data set [7] is “yes”. The “Hepatotoxicity (acute)” value is listed as 1.5% in data set [8] and 5 in [11]. For the same compound, the “Hepatotoxicity (association with vascular disease)” value in [9] was 0. The “Hepatotoxicity (choleostasis)” value in [12] was 0. In [13], the “Hepatotoxicity (comment)” value is recorded as “RC/METAHEXAMIDE”. Besides, in data set [14], the “Hepatotoxicity (malignant tumour)” value amounted to 0. Further, the “Hepatotoxicity (severe hepatitis)” value in data set [15] was determined as 3. Also, the “Hepatotoxicity (steatosis)” value in [16] is 0.
Turning to `CN(C)[C@@H]1C(O)=C(C(N)=O)C(=O)[C@@]2(O)C(O)=C3C(=O)c4c(O)cccc4[C@@](C)(O)[C@H]3C[C@@H]12` [TETRACYCLINE], the results for the “Hepatotoxicity (moderate)” value in data set [1] and in data set [10] were 1 and 6.3%, respectively. Further, in data set [2], the “Hepatotoxicity (cirrhosis)” value was 0. Further, in data set [3], the “Hepatotoxicity (granulomatous hepatitis)” value was determined as 0. The “Hepatotoxicity (time to onset)” value in data set [17] is 3 days - 2 months. For the same compound, in data set [4], the “Hepatotoxicity (chronic liver disease)” value is listed as 1. The “Hepatotoxicity (cytolytic)” value in data set [5] turned out to be 2. In data set [6], the “Hepatotoxicity (benign tumour)” value is on record as 0. In addition, in data set [7], the “Hepatotoxicity (animal toxicity known)” value is reported as “yes”. In addition, the “Hepatotoxicity (acute)” value in data set [8] stood at 0%; in data set [11], 10. Besides, the “Hepatotoxicity (association with vascular disease)” value in [9] was 0. In addition, the “Hepatotoxicity (choleostasis)” value in data set [12] stood at 8. For the same compound, in [13], the “Hepatotoxicity (comment)” value is “CHOLESTASE_PROLONGEE DUCTOPENIE”. Further, the “Hepatotoxicity (malignant tumour)” value in data set [14] is recorded as 0. The “Hepatotoxicity (severe hepatitis)” value in data set [15] is given as 7. Also, the “Hepatotoxicity (steatosis)” value in data set [16] stood at 22.
With PARAFFIN, the entries for the “Hepatotoxicity (moderate)” value in data set [1] and in data set [10] were 0 and 0%, respectively. For the same compound, the “Hepatotoxicity (cirrhosis)” value in [2] is on record as 0. In addition, the “Hepatotoxicity (granulomatous hepatitis)” value in [3] amounted to 0. Moreover, the “Hepatotoxicity (time to onset)” value in [17] was 10 years. The “Hepatotoxicity (chronic liver disease)” value in [4] came out at 0. Also, the “Hepatotoxicity (cytolytic)” value in data set [5] is listed as 0. For the same compound, the “Hepatotoxicity (benign tumour)” value in [6] stood at 0. Besides, the “Hepatotoxicity (animal toxicity known)” value in data set [7] is reported as “yes”. The figures for the “Hepatotoxicity (acute)” value in [8] and in data set [11] were 0% and 0, respectively. The “Hepatotoxicity (association with vascular disease)” value in data set [9] worked out at 0. Besides, the “Hepatotoxicity (choleostasis)” value in data set [12] came out at 0. Further, the “Hepatotoxicity (comment)” value in [13] was “LIPOGRANULOMES”. Also, the “Hepatotoxicity (malignant tumour)” value in data set [14] is listed as 0. For the same compound, in data set [15], the “Hepatotoxicity (severe hepatitis)” value is recorded as 0. In addition, the “Hepatotoxicity (steatosis)” value in data set [16] was determined as 7.
In the case of `CCC[C@@H]1C[C@@H](C(=O)N[C@@H]([C@H]2O[C@H](SC)[C@H](O)[C@@H](O)[C@H]2O)[C@H](C)Cl)N(C)C1` [CLINDAMYCIN], the “Hepatotoxicity (moderate)” value in data set [1] was determined as 15; in data set [10] it was 52%. Further, in [2], the “Hepatotoxicity (cirrhosis)” value worked out at 0. Also, the “Hepatotoxicity (granulomatous hepatitis)” value in [3] is reported as 1. Moreover, the “Hepatotoxicity (time to onset)” value in data set [17] is reported as 2 days - 17 days. Also, in data set [4], the “Hepatotoxicity (chronic liver disease)” value was found to be 1. Also, the “Hepatotoxicity (cytolytic)” value in data set [5] was found to be 2. The “Hepatotoxicity (benign tumour)” value in data set [6] was found to be 0. Also, the “Hepatotoxicity (animal toxicity known)” value in [7] is given as “yes”. Also, the “Hepatotoxicity (acute)” value was determined as 0% in data set [8] and 5 in data set [11]. Besides, the “Hepatotoxicity (choleostasis)” value in [12] came to 1. In addition, in data set [13], the “Hepatotoxicity (comment)” value was “#CBP”. In data set [14], the “Hepatotoxicity (malignant tumour)” value was found to be 0. For the same compound, the “Hepatotoxicity (severe hepatitis)” value in data set [15] is 0. Besides, the “Hepatotoxicity (steatosis)” value in data set [16] is reported as 0.
